Data as given in US12427192B2, “Water soluble adjuvant and composition containing same” (Sumitomo Pharma Co., Ltd., priority 2019, dated 2025).

Columns and labels:
[1] = test system: HLA-A*02:01 transgenic mouse; test: Test 12: in vivo adjuvant activity, cocktail vaccine g (emulsified composition 2), IFNγ ELISPOT; details: added to cocktail vaccine g (emulsified composition 2); 0.04 nmol or 0.4 nmol per body, twice; FIG. 12 and 13
Description: (§1) Evaluation of In Vivo Adjuvant Activity in HLA-A*02:01 Transgenic Mouse
The in vivo adjuvant activity of the compound of Example 1 was evaluated in the following procedure. To a cocktail vaccine (emulsified composition 2) comprising Compound of formula 4 prepared in Reference example 8 and Peptide SEQ ID No. 3 prepared in Reference example 3 (hereinafter, referred to as “cocktail vaccine g”) was added the compound prepared in Example 1 to prepare a vaccine. The vaccine was administered to a HLA-A*02:01 transgenic mouse, and the adjuvant activity of the vaccine was evaluated by the method of testing antigen-specific CTL induction.
For example, the above emulsified composition 2 was prepared as follows. 95.8% (w/w) of medium-chain triglyceride (MYGLYOL 812), 3% (w/w) of PEG-30 dipolyhydroxy stearate, and 1.2% (w/w) of polysorbate 80 were mixed to prepare an oil-phase mixture. The amount of the preparation was adjusted as appropriate. Compound of formula 4 and Peptide SEQ ID No. 3 were mixed with pH 2.5 buffer (10 mM tartaric acid, 10% trehalose) to adjust each concentration to 3 mg/mL and 2.25 mg/mL, respectively. The prepared peptide dilution was mixed with an equal volume of the oil-phase mixture to give an emulsified product, cocktail vaccine g. […] Then, after removal of the supernatant from the wells, stained spots on the ELISPOT plate were counted.

[2] = test system: HLA-A*02:01 transgenic mouse; test: Test 14: in vivo adjuvant activity, cocktail vaccine i (oily suspension formulation), IFNγ ELISPOT; details: added to cocktail vaccine i (oily suspension formulation); 0.04 nmol or 0.4 nmol per body, twice; FIG. 15 and 16
Description: as §1
The in vivo adjuvant activity of the compound of Example 1 was evaluated in the following procedure. To a cocktail vaccine (oily suspension formulation) comprising Compound of formula 4 prepared in Reference example 8 and Peptide SEQ ID No. 3 prepared in Reference example 3 (hereinafter, referred to as “cocktail vaccine i”) was added the compound prepared in Example 1 to prepare a vaccine. The vaccine was administered to a HLA-A*02:01 transgenic mouse, and the adjuvant activity of the vaccine was evaluated by the method of testing antigen-specific CTL induction.
For example, the above oily suspension formulation was prepared as follows. […]
Cocktail vaccine i was injected to mice intradermally at the tail base area in an amount for administering 300 μg of Compound of formula 4 per body and 225 μg of Peptide SEQ ID No. 3 per body. […] Then, after removal of the supernatant from the wells, stained spots on the ELISPOT plate were counted.

CCCCCNc1nc(N)nc(C)c1Cc1ccc(CN(C)CCOCCOCCOCCOCCO)cc1OC [Example 1, 1-(4-{[2-amino-4-methyl-6-(pentylamino)pyrimidin-5-yl]methyl}-3-methoxyphenyl)-2-methyl-5,8,11,14-tetraoxa-2-azahexadecan-16-ol·trifluoroacetate]
CTL counts responsive to Peptide SEQ ID No. 1 or SEQ ID No. 4 compared with adding no compound [1]: more
CTL counts responsive to Peptide SEQ ID No. 1 or SEQ ID No. 4 compared with adding no compound [2]: more
